# Where “and” joins values, the source holds several entries; their conditions need not be identical. Identical values can stand only once.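 Five compound concentrations were applied to cells in 96-well plates for 48 hours; endpoints were derived by simple linear interpolation of the resulting dose-response curve. Abbreviation: GI50, concentration required for 50% inhibition of growth. TGI: concentration producing complete growth inhibition.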
# How the values were obtained:
# Assay in all cases: NCI-60 cell line screen, 48 h
# SK-OV-3 ovarian = tested on: SK-OV-3 ovarian
# XF 498 CNS = tested on: XF 498 CNS
# SR leukemia = tested on: SR leukemia
# K-562 leukemia = tested on: K-562 leukemia
# U251 CNS = tested on: U251 CNS
# COLO 205 colon = tested on: COLO 205 colon
# UACC-257 melanoma = tested on: UACC-257 melanoma
# NCI-H522 lung = tested on: NCI-H522 lung
# SW-620 colon = tested on: SW-620 colon
# HCT-116 colon = tested on: HCT-116 colon
# DLD-1 colon = tested on: DLD-1 colon
# SK-MEL-2 melanoma = tested on: SK-MEL-2 melanoma
# DMS 114 small cell lung = tested on: DMS 114 small cell lung
# NCI-H460 lung = tested on: NCI-H460 lung
# HOP-18 NSCLC = tested on: HOP-18 NSCLC
# HCC-2998 colon = tested on: HCC-2998 colon
# IGROV1 ovarian = tested on: IGROV1 ovarian
# ACHN renal = tested on: ACHN renal
# SK-MEL-5 melanoma = tested on: SK-MEL-5 melanoma
# HCT-15 colon = tested on: HCT-15 colon
# HL-60(TB) leukemia = tested on: HL-60(TB) leukemia
# SF-295 CNS = tested on: SF-295 CNS
# NCI-H226 lung = tested on: NCI-H226 lung
# A498 renal = tested on: A498 renal
# OVCAR-4 ovarian = tested on: OVCAR-4 ovarian
# A549 NSCLC = tested on: A549 NSCLC
# SN12C renal = tested on: SN12C renal
# LXFL 529 NSCLC = tested on: LXFL 529 NSCLC
# OVCAR-8 ovarian = tested on: OVCAR-8 ovarian
# CAKI-1 renal = tested on: CAKI-1 renal
# LOX IMVI melanoma = tested on: LOX IMVI melanoma
# KM12 colon = tested on: KM12 colon
# SNB-78 CNS = tested on: SNB-78 CNS
# M14 melanoma = tested on: M14 melanoma
# RXF 393 renal = tested on: RXF 393 renal
# EKVX NSCLC = tested on: EKVX NSCLC
# TK-10 renal = tested on: TK-10 renal
# SF-268 CNS = tested on: SF-268 CNS
# MALME-3M melanoma = tested on: MALME-3M melanoma
# SK-MEL-28 melanoma = tested on: SK-MEL-28 melanoma
# HOP-92 NSCLC = tested on: HOP-92 NSCLC
# SNB-75 CNS = tested on: SNB-75 CNS
# MDA-MB-435 = tested on: MDA-MB-435
# NCI-H23 lung = tested on: NCI-H23 lung
# SF-539 CNS = tested on: SF-539 CNS
# MOLT-4 leukemia = tested on: MOLT-4 leukemia
# UACC-62 melanoma = tested on: UACC-62 melanoma
# RPMI-8226 leukemia = tested on: RPMI-8226 leukemia
# UO-31 renal = tested on: UO-31 renal
# OVCAR-5 ovarian = tested on: OVCAR-5 ovarian
# 786-0 renal = tested on: 786-0 renal
# KM20L2 colon = tested on: KM20L2 colon
# MDA-N = tested on: MDA-N
# DMS 273 small cell lung = tested on: DMS 273 small cell lung
# OVCAR-3 ovarian = tested on: OVCAR-3 ovarian
# HOP-62 NSCLC = tested on: HOP-62 NSCLC
# M19-MEL melanoma = tested on: M19-MEL melanoma
# HT29 colon = tested on: HT29 colon
# CCRF-CEM leukemia = tested on: CCRF-CEM leukemia
# SNB-19 CNS = tested on: SNB-19 CNS
compound,measurement,setting,value
O=C1c2nc3n(c2C(=O)c2c1nc1n2CCC1)CCC3,TGI,SK-OV-3 ovarian,92.2 µM
same,TGI,XF 498 CNS,19.6 µM
same,GI50,SR leukemia,3.58 µM
same,TGI,SR leukemia,> 40.6 µM
same,TGI,K-562 leukemia,> 57.8 µM
same,TGI,U251 CNS,34 µM
same,GI50,COLO 205 colon,4.13 µM
same,TGI,COLO 205 colon,18.5 µM
same,GI50,UACC-257 melanoma,2.47 µM
same,TGI,UACC-257 melanoma,5.6 µM and 5.72 µM
same,TGI,NCI-H522 lung,19.5 µM
same,TGI,SW-620 colon,17.2 µM
same,GI50,HCT-116 colon,4.29 µM
same,TGI,HCT-116 colon,9.22 µM
same,TGI,DLD-1 colon,18.2 µM
same,GI50,SK-MEL-2 melanoma,4.39 µM
same,TGI,SK-MEL-2 melanoma,13.5 µM
same,TGI,DMS 114 small cell lung,5.29 µM
same,GI50,NCI-H460 lung,3.89 µM
same,TGI,NCI-H460 lung,6.24 µM
same,TGI,HOP-18 NSCLC,27.2 µM
same,TGI,HCC-2998 colon,21 µM
same,TGI,IGROV1 ovarian,24.5 µM
same,TGI,ACHN renal,23.9 µM
same,GI50,SK-MEL-5 melanoma,1.68 µM
same,TGI,SK-MEL-5 melanoma,3.05 µM and 2.78 µM
same,TGI,HCT-15 colon,19.2 µM
same,TGI,HL-60(TB) leukemia,> 36.6 µM
same,GI50,SF-295 CNS,6.72 µM
same,TGI,SF-295 CNS,17.9 µM
same,GI50,NCI-H226 lung,7.84 µM
same,TGI,NCI-H226 lung,19.1 µM
same,TGI,A498 renal,29.6 µM
same,GI50,OVCAR-4 ovarian,5.45 µM
same,TGI,OVCAR-4 ovarian,14.9 µM
same,GI50,A549 NSCLC,5.11 µM
same,TGI,A549 NSCLC,18.1 µM
same,GI50,SN12C renal,9.48 µM
same,TGI,SN12C renal,14.5 µM
same,TGI,LXFL 529 NSCLC,21.5 µM
same,GI50,OVCAR-8 ovarian,7.87 µM
same,TGI,OVCAR-8 ovarian,22.5 µM
same,TGI,CAKI-1 renal,23.9 µM
same,GI50,LOX IMVI melanoma,3.75 µM
same,TGI,LOX IMVI melanoma,13.4 µM
same,GI50,KM12 colon,5.63 µM
same,TGI,KM12 colon,17 µM
same,TGI,SNB-78 CNS,31.1 µM
same,GI50,M14 melanoma,4.88 µM
same,TGI,M14 melanoma,4.65 µM
same,TGI,RXF 393 renal,9.59 µM
same,TGI,EKVX NSCLC,31.2 µM
same,TGI,TK-10 renal,> 77.2 µM
same,TGI,SF-268 CNS,32 µM
same,GI50,MALME-3M melanoma,2 µM
same,TGI,MALME-3M melanoma,3.54 µM and 2.17 µM
same,TGI,SK-MEL-28 melanoma,31.3 µM
same,TGI,HOP-92 NSCLC,26.3 µM
same,TGI,SNB-75 CNS,28.9 µM
same,TGI,MDA-MB-435,3.48 µM
same,GI50,NCI-H23 lung,3.08 µM
same,TGI,NCI-H23 lung,7.09 µM
same,TGI,SF-539 CNS,8.77 µM and 13.5 µM
same,TGI,MOLT-4 leukemia,> 67.6 µM
same,GI50,UACC-62 melanoma,2.21 µM
same,TGI,UACC-62 melanoma,5.5 µM and 3.65 µM
same,GI50,RPMI-8226 leukemia,9.83 µM
same,TGI,RPMI-8226 leukemia,> 100 µM
same,TGI,UO-31 renal,37.4 µM
same,TGI,OVCAR-5 ovarian,30.7 µM
same,GI50,786-0 renal,9.25 µM
same,TGI,786-0 renal,> 47.8 µM
same,TGI,KM20L2 colon,11.4 µM
same,TGI,MDA-N,3.47 µM
same,TGI,DMS 273 small cell lung,12.7 µM
same,GI50,OVCAR-3 ovarian,3.42 µM
same,TGI,OVCAR-3 ovarian,9.74 µM and 7.87 µM
same,GI50,HOP-62 NSCLC,5.19 µM
same,TGI,HOP-62 NSCLC,15.9 µM
same,TGI,M19-MEL melanoma,0.387 µM
same,GI50,HT29 colon,5.14 µM
same,TGI,HT29 colon,10.8 µM
same,TGI,CCRF-CEM leukemia,31.4 µM
same,TGI,SNB-19 CNS,27.9 µM
